# Source: patent US10441568B2, “Nitroxide radicals for the treatment of diseases of the respiratory tract” (priority 2015, dated 2019)
# Tests used:
# [1] = test system: bleomycin-induced pulmonary fibrosis; test: Inflammatory cell counts in BAL fluid, bleomycin pulmonary fibrosis model; type: in vivo, mice; conditions: 3-CP 150 mg/kg daily intranasal, 14 days, FIG. 18
# Protocol: (§1) Bronchoalveolar lavage (BAL) fluid (also referred to herein as “BALf”) and bronchial submucosal inflammation are characteristic features of asthma. Mice were euthanized with an overdose of 50 mg/kg pentobarbital and ice-cold phosphate buffer saline (PBS) (0.6 ml) was instilled into the lungs. BAL fluid was obtained by three aspirations via tracheal cannulation, centrifuged, and the supernatant collected and stored at −70° C. Cell pellets were re-suspended in PBS and 100 μl aliquots placed onto slides and centrifuged (200 g, 4° C., 10 minutes) in a cytospin machine. Induction of oxidative stress was evaluated using a 2′,7′-dichlorofluorescein fluorescence assay, and total IgE, IgG2a, panel of cytokines, transforming growth factors, collagen, protein nitration and lipid peroxidation were measured using commercial kits according to the manufacturer's recommendations. A Sircol™ collagen assay kit was obtained from Biocolor Life Sciences Assays, a protein nitration assay kit was obtained from Abcam, and other assay kits were obtained from PeproTech Asia. […]
# The effect of 3-CP on bleomycin-induced inflammation was evaluated by determining lung resistance, total inflammatory cell count, and TGF-β1 levels, according to procedures described hereinabove.
# [2] = test system: bleomycin-induced pulmonary fibrosis; test: Collagen content in lung tissue, bleomycin pulmonary fibrosis model; type: in vivo, mice; conditions: 3-CP 150 mg/kg daily intranasal, 14 days, FIG. 20
# Protocol: as §1
# The degree of fibrosis was evaluated by measuring collagen content in lung tissue.
# [3] = test system: mice with OVA-induced chronic asthma; test: Pulmonary collagen content, severe (chronic) asthma model; type: in vivo; conditions: FIG. 16
# Protocol: Bronchoalveolar lavage (BAL) fluid (also referred to herein as “BALf”) and bronchial submucosal inflammation are characteristic features of asthma. Mice were euthanized with an overdose of 50 mg/kg pentobarbital and ice-cold phosphate buffer saline (PBS) (0.6 ml) was instilled into the lungs. BAL fluid was obtained by three aspirations via tracheal cannulation, centrifuged, and the supernatant collected and stored at −70° C. Cell pellets were re-suspended in PBS and 100 μl aliquots placed onto slides and centrifuged (200 g, 4° C., 10 minutes) in a cytospin machine. Induction of oxidative stress was evaluated using a 2′,7′-dichlorofluorescein fluorescence assay, and total IgE, IgG2a, panel of cytokines, transforming growth factors, collagen, protein nitration and lipid peroxidation were measured using commercial kits according to the manufacturer's recommendations. […]
# 3-CP was administered orally (1 weight percent in chow) during the entire experiment, and dexamethasone (Dex) was administered via IP injection (1 mg/kg) one hour before each challenge. Inflammatory cell counts and pulmonary collagen content were then evaluated according to procedures described hereinabove, in order to assess effects on inflammation and remodeling, respectively.
# [4] = test system: IL-4; test: IL-4 level in OVA asthma model; type: in vivo, BALB/c mice
# Protocol: (§2) All experimental procedures were carried out in accordance with the NIH Guidelines for the Care and Use of Laboratory Animals. Specific pathogen-free (SPF) male BALB/c mice (6-7 weeks of age, 18-22 grams), routinely screened serologically for relevant respiratory pathogens, were maintained in an animal housing facility for 1 week before use and given access to food and water ad libitum. Animals were randomly assigned to the indicated experimental groups, and sensitized with two intraperitoneal (IP) injections (20 μg ovalbumin (OVA) emulsified in 2 mg aluminum hydroxide (an adjuvant) in 200 μl phosphate buffer saline (PBS), pH 7.4), on days 1 and 10.
# (§3) After another week, the animals were challenged by exposure to ovalbumin (OVA) aerosol (1%, w/v, in PBS) for 30 minutes each day on days 17, 18 and 19, in order to elicit an inflammatory reaction in the lungs characterized by airway hyper-responsiveness (AHR), an influx of inflammatory cells (particularly eosinophils), and increased pulmonary levels of various cytokines and transforming growth factors, protein nitration and lipid peroxidation.
# (§4) Bronchoalveolar lavage (BAL) fluid (also referred to herein as “BALf”) and bronchial submucosal inflammation are characteristic features of asthma. Mice were euthanized with an overdose of 50 mg/kg pentobarbital and ice-cold phosphate buffer saline (PBS) (0.6 ml) was instilled into the lungs. BAL fluid was obtained by three aspirations via tracheal cannulation, centrifuged, and the supernatant collected and stored at −70° C. Cell pellets were re-suspended in PBS and 100 μl aliquots placed onto slides and centrifuged (200 g, 4° C., 10 minutes) in a cytospin machine. Induction of oxidative stress was evaluated using a 2′,7′-dichlorofluorescein fluorescence assay, and total IgE, IgG2a, panel of cytokines, transforming growth factors, collagen, protein nitration and lipid peroxidation were measured using commercial kits according to the manufacturer's recommendations. A Sircol™ collagen assay kit was obtained from Biocolor Life Sciences Assays, a protein nitration assay kit was obtained from Abcam, and other assay kits were obtained from PeproTech Asia.
# (§5) The efficacy of oral administration of 3-CP (1 weight percent in chow) during the sensitization period and/or challenge period was then compared to IP injection (˜300 mg/kg, 0.5 hour before the OVA challenge) or intranasal instillation (˜150 mg/kg, 0.5 hour before the OVA and 6 hours later) of 3-CP, as well as to dexamethasone treatment (1 mg/kg, 3 daily IP injections, 0.5 hour prior to the challenge with OVA aerosol).
# (§6) In order to assess the effect of 3-CP on inflammatory signaling pathways, […] to procedures described hereinabove, upon oral, intranasal or IP administration of 3-CP.
# [5] = Nitroxide concentration measurement by EPR in mouse blood and tissue; type: in vivo; conditions: mice
# Protocol: Electron paramagnetic resonance (EPR) spectroscopy was used to determine residual levels of nitroxide in mouse tissue. Blood samples or tissue samples were diluted with 0.5 ml phosphate buffer (40 mM, pH 7.4) or water, inserted into a flexible capillary placed in a quartz tube installed within the EPR spectrometer cavity and assayed for residual nitroxide. A similar procedure was used to determine the residual nitroxide in tissue homogenates of various organs, which were corrected for blood contamination spectrophotometrically by following the absorption of oxyhemoglobin at 400-600 nm. Measured EPR signals were compared to those of a nitroxide standard solution.
# In order to determine total hydroxylamine and nitroxide concentrations, 2 mM K3Fe(CN)6 was added to samples in order to oxidize hydroxylamines to the respective nitroxide, and the nitroxide level was determined by EPR spectroscopy as described hereinabove.
# Control and experimental groups contained 10 mice each. The effects of the nitroxides were investigated by feeding the mice ad libitum a diet of nitroxide-containing chow (1 weight percent) during both ovalbumin (OVA)-induced sensitization and challenging periods (days −2-19), during the sensitization period (days −2-11) or challenge period (days 13-19). Nitroxide-containing chow were prepared by dissolving 500 grams chow in a minimum volume of water containing 5 grams nitroxide and 5 grams commercial chicken soup powder, preparing the chow and drying it at 37° C. (animals were reluctant to eat nitroxide-containing chow until chicken soup powder was added).
# 3-CP was also administered using 3 daily intraperitoneal (IP) injections (200 μl, 0.15 M, ˜300 mg/kg) 0.5 hour prior to the challenge with OVA aerosol, or by nasal instillation (50 μl, 0.3 M, ˜150 mg/kg) twice a day 0.5 hour prior to the challenge with OVA aerosol and 6 hours later without exceeding its maximally tolerated dose, which has been previously established to be 300-500 mg/kg. Both 3-CP and TPL were non-toxic when administered orally or via IP injection to untreated OVA-challenged mice for 22 days.
# [6] = test system: IL-5; test: IL-5 level in OVA asthma model; type: in vivo, BALB/c mice; conditions: for IL-5 level: lung tissue (table title)
# Protocol: as §2, §3, §4, §5, §6
# [7] = OVA IP-C: 3-CP intraperitoneal during challenge
# [8] = OVA oral-C: 3-CP oral during challenge
# [9] = OVA oral-S&C: 3-CP oral during sensitization and challenge
# [10] = OVA oral-S: 3-CP oral during sensitization
# [11] = oral administration vs IP injection
# [12] = nasal instillation (50 μL, 0.3 M), FIG. 2
# [13] = oral administration (1 weight percent nitroxide in chow), FIG. 1
# [14] = stated after the oral administration data
smiles,measurement,setting,value
"CC1(C)CC(C(N)=O)C(C)(C)N1[O] (stereo not drawn) [3-CP, 3-Carbamoyl-2,2,5,5-tetramethyl-pyrrolidin-1-oxyl]",effect on bleomycin-induced increase in inflammatory cell counts in BAL fluid,[1],significantly reduced
same,"effect on bleomycin-induced pulmonary fibrosis, pulmonary collagen content",[2],significantly inhibited
same,effect on increase in collagen content of the lung,[3]; 3-CP oral 1 weight percent in chow during entire experiment,completely reversed the increase in collagen content
same,"reducing collagen content, 3-CP compared with dexamethasone","[3]; 3-CP oral, dexamethasone 1 mg/kg IP before each challenge",more effective than dexamethasone treatment at reducing collagen content
same,effect on OVA-induced increase in the level of IL-4,[4]; FIG. 7A and Table 1,inhibited
same,IL-4 level,[4]; [7],1.70 ng/mg
same,IL-4 level,[4]; [8],2.03 ng/mg
same,IL-4 level,[4]; [9],1.65 ng/mg
same,IL-4 level,[4]; [10],2.44 ng/mg
same,"modulating IL-4 level, oral compared with IP 3-CP",[4]; [11],consistently more effective than IP injection of 3-CP
same,residual concentration of the respective hydroxylamine compared with the nitroxide,[5]; data not shown,higher than those of the therapeutically active nitroxide free radical
same,absolute concentration in lung tissue relative to blood,[5]; [12],about twice the concentration in the blood
same,half-life of reduction/clearance from blood and lung tissue,[5]; [12],about 80 minutes
same,time course of residual concentration in blood and lung tissue,[5]; [12],decreased exponentially with time
same,"blood concentration, 3-CP compared with TPL",[5]; [13],higher than TPL blood concentrations
same,residual concentration of nitroxide in blood,[5]; [13],detectable levels
same,residual concentration in the lungs compared with other organs,[5]; [14],"significantly higher than in the heart, spleen, liver, kidney and brain"
same,residual concentration in the lungs relative to that in the blood,[5]; [14],about 65%
same,IL-5 level,[6]; [7],2.08 ng/mg
same,IL-5 level,[6]; [8],2.40 ng/mg
same,IL-5 level,[6]; [9],1.96 ng/mg
same,IL-5 level,[6]; [10],3.16 ng/mg
same,effect on OVA-induced increase in the level of IL-5,"[6]; lung tissue, FIG. 7B and Table 1",inhibited
same,"modulating IL-5 level, oral compared with IP 3-CP",[6]; [11],consistently more effective than IP injection of 3-CP
